Values quoted from earlier work in patent US8476249B2, “Method of treating thrombocytopenia” (GlaxoSmithKline LLC, priority 2010, dated 2013).

Tests used:
[1] = specifically in the portal vein system
[2] = in vivo

thrombotic events [1] | Molecule | occurrence of portal vein thrombosis [2]
associated with thrombotic events | CC1=NN(c2ccc(C)c(C)c2)C(=O)/C1=N\Nc1cccc(-c2cccc(C(=O)O)c2)c1O.NCCO.NCCO [eltrombopag, 3′-[(2Z)-[1-(3,4-dimethylphenyl)-1,5-dihydro-3-methyl-5-oxo-4H-pyrazol-4-ylidene]hydrazino]-2′-hydroxy-[1,1′-biphenyl]-3-carboxylic acid bis-(monoethanolamine)] | –
– | enoxaparin | reducing the occurrence of portal vein thrombosis
